Legend:
NF-kB pathway [1] = experiment: Phosphorylated p65 subunit after PMA/ionomycin activation, Jurkat cells; format: cell-based; conditions: human Jurkat cells; PMA 50 μg/ml and ionomycin 1 μg/ml; 5-10 minutes after activation (FIG. 18)
Protocol: (§1) Seeking for the molecular mechanism(s) underlying 6-BT actions, 6-BT impact on the activation of the NF-kB pathway, a central pathway in all inflammatory diseases (beyond autoimmunity) was checked first. […] Upon T cell activation with PMA ([…]) and ionomycin (1 μg/ml), 6-BT could inhibit, at very early time-points (5-10 minutes after activation), the NF-kB signaling. This effect was found in both murine and human (Jurkat cells) CD4 T cells.

murine CD4 T cells = experiment: Seahorse XF mitochondrial metabolism (OCR), murine CD4 T cells; format: cell-based; conditions: 100 uM; murine CD4 T cells (FIG. 22)
Protocol: Finally, it was uncovered that 6-BT also impacts the intracellular metabolism.
OCR=oxygen consumption rate, used as a proxy of cellular utilization of mitochondrial oxidative phosphorylation. OCR was measured using a Seahorse XF Analyzer Uchimura T., The Innate Immune Sensor NLRC3 Acts as a Rheostat that Fine-Tunes T Cell Responses in Infection and Autoimmunity. Immunity 2019; Chou, AIM2 in regulatory T cells restrains autoimmune diseases, Nature 2021.

AhR = target: T1, AhR (Homo sapiens, UniProt P35869); experiment: AhR activation
T1 sequence (P35869 11-848): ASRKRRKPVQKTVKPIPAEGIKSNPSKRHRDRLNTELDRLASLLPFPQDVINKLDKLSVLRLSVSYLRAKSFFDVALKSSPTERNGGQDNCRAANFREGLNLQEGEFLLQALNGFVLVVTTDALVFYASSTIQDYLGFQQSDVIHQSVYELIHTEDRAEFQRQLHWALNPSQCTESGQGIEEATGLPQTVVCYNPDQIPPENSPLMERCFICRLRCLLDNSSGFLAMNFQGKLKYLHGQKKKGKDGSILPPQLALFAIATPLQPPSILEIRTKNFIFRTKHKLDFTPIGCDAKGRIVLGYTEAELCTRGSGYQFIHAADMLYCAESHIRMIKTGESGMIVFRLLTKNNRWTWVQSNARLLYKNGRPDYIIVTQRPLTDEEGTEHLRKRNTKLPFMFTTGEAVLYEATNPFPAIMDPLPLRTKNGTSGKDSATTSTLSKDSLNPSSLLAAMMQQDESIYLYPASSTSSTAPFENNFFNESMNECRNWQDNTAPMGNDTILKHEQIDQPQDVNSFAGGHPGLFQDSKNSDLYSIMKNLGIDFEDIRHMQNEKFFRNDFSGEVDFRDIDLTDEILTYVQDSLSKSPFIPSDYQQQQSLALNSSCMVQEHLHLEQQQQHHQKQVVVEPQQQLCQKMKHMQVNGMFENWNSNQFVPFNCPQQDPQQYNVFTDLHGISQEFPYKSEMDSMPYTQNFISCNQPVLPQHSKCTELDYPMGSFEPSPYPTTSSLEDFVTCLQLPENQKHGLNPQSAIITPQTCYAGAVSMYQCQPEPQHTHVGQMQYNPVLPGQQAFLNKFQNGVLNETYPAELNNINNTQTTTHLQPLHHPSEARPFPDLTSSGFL

[2] = tested on: pro-inflammatory M1 macrophages; experiment: Seahorse XF intracellular metabolism, M1 macrophages; format: cell-based; conditions: M1 macrophages differentiated in presence of LPS and IFNgamma (FIG. 23)
Description: Intracellular metabolism measured using a Seahorse XF Analyzer, Uchimura T., The Innate Immune Sensor NLRC3 Acts as a Rheostat that Fine-Tunes T Cell Responses in Infection and Autoimmunity. Immunity 2019; Chou, AIM2 in regulatory T cells restrains autoimmune diseases, nature 2021.

NF-kB pathway [3] = experiment: Phosphorylated p65 subunit after PMA/ionomycin activation, murine CD4 T cells; format: cell-based; conditions: PMA 50 μg/ml and ionomycin 1 μg/ml, 5-10 minutes after activation (FIG. 18)
Protocol: as §1

## N[C@@H](Cc1c[nH]c2cc(Br)ccc12)C(=O)O [6-BT, 6-bromotryptophan]
NF-kB pathway [1]
  NF-kB signaling (phosphorylated p65 subunit): could inhibit
Murine CD4 T cells
  mitochondrial metabolism (OCR): promotes the mitochondrial metabolism
AhR
  activation of AhR: does not act through activation of AhR
[2]
  glycolytic flux: without affecting the glycolytic flux
  mitochondrial metabolism: could enhance the mitochondrial metabolism
NF-kB pathway [3]
  NF-kB signaling (phosphorylated p65 subunit): could inhibit
